# US20130096098A1, “Light Insensitive Silver(i) Cyanoximates As Antimicrobial Agents For Indwelling Medical Devices” (MISSOURI STATE UNIVERSITY, priority 2011, published 2013)
# Like-named read-outs stand apart in the source and are kept apart here.
# Assays:
# [1] = system: inoculated microorganisms; assay: Antibacterial tests in solid state: soaked dried filter paper disks on agar plates; type: cell-based; conditions: deposited on filter papers from DMF 10 mg/mL, 20 μL; 37° C., 24 h
# Description: (§1) Antimicrobial Activity Studies. Bacterial Strains and Growing Conditions. The strains of bacteria were obtained from Polish Collection of Microorganisms (PCM) of the Institute of Immunology and Experimental Therapy of Polish Academy of Sciences and were used throughout this study. Both Gram-negative and Gram-positive bacteria, as well as yeasts, commonly isolated from patients suffering implant-related infections, were chosen for experiments. They included Escherichia coli PCM 1144 (ATCC #10536), Klebsiella pneumoniae PCM 57, Proteus sp. PCM 542 (ATCC #13315), Pseudomonas aeruginosa PCM 2563 (ATCC #15442), Streptococcus mutans PCM 2502, Staphylococcus aureus PCM 2602 (ATCC #6538), Enterococcus hirae PCM 2559 (ATCC #10541), Mycobacterium fortuitum PCM 672, Candida albicans PCM 2566 (ATCC #10231). In addition, several multidrug-resistant bacterial strains isolated from patients with nosocomial infections K. pneumoniae 244, P. aeruginosa 2314, AMA, Enterococcus faecium VRE (vancomycin-resistant), Streptococcus pneumoniae PCI, S. aureus MRSA (methicillin-resistant), S. aureus MRSC (coagulase-negative methicillin-resistant), were also included in the in vitro testing. Bacteria were cultivated on sugar broth at 37° C. for 24 h in aerobic conditions, and prior to use in tests, cells were diluted with the same medium to obtain suspensions of about 2×10^5 cfu/mL.
# Antibacterial Tests in Solid State: Soaked Dried Paper Disks and Pellets. Solutions (or suspensions if the compound was not completely solubilized) of studied Ag(I) cyanoximates in DMF at 10 mg/mL concentration were prepared and 20 μL of it was placed on filter paper discs (diameter 12 mm). These discs were dried for ˜2 h in the dark prior to testing where each filter was placed on agar plates with inoculated microorganisms, which were then incubated at 37° C. for 24 h. Thereafter, microorganisms' growth inhibition zone (if present) was measured (in mm).
# [2] = system: Mycobacterium fortuitum; assay: Antibacterial tests in solid state: pressed AgL pellets on agar plates; type: cell-based
# Description: as §1
# (§2) Also, Ag(I) cyanoximates were pressed into 12 mm in diameter pellets using a Carver 20 tons hydraulic press. The method of testing pellets was similar to the one described above. Solid pellets of AgL were carefully placed on agar plates with inoculated bacteria. The exposition time was 24 h at 37° C., after which inhibition zones were measured and results were documented by digital photography.
# [3] = system: Pseudomonas aeruginosa; assay: as above; type: cell-based
# Description: as §1, §2
# [4] = UV-light stability studies, low-pressure Hg lamp 254 nm; type: physicochemical
# Protocol: Photophysical Measurements. Light sensitivity and stability of synthesized Ag(I) cyanoximates was studied at 296 K using a low-pressure Hg lamp with >85% output at λmax=254 nm where the intensity of light was measured with a UVX radiometer (UK). After 4 min warm-up time, this lamp generated a steady flux of UV-radiation that was equal to the dose of 10.13 J/cm^2 within 30 min. Prior to these investigations, complexes were thoroughly dried under high vacuum (<10^−4 Torr) and ground into a powder using an agate mortar. This made it easy to apply these compounds to paper, adhesive tape, or cardboard. Samples of complex were spread on white cardboard with an exposed circular area (via a mask) of ˜3 cm. The radiation source was positioned 1 cm from the sample. A pristine white silver chloride prepared in the dark was used as a control substance to access the light stability of silver(I) cyanoximates. Digital pictures of irradiated samples were taken every 30 min using a stationary digital camera (Kodak DX7630; 6.1 Mpx), and native images were cropped to square shape without any contrast or brightness editing using Samsung Digimax Viewer 2.0 software.
# [5] = system: bacterial strains; assay: Antibacterial tests in solutions, microplate Alamar Blue assay (MIC); type: cell-based; conditions: stock in DMSO, 37° C., 48 h, tested infection agents
# Description: Antimicrobial Activity Studies. Bacterial Strains and Growing Conditions. The strains of bacteria were obtained from Polish Collection of Microorganisms (PCM) of the Institute of Immunology and Experimental Therapy of Polish Academy of Sciences and were used throughout this study. Both Gram-negative and Gram-positive bacteria, as well as yeasts, commonly isolated from patients suffering implant-related infections, were chosen for experiments. They included Escherichia coli PCM 1144 (ATCC #10536), Klebsiella pneumoniae PCM 57, Proteus sp. PCM 542 (ATCC #13315), Pseudomonas aeruginosa PCM 2563 (ATCC #15442), Streptococcus mutans PCM 2502, Staphylococcus aureus PCM 2602 (ATCC #6538), Enterococcus hirae PCM 2559 (ATCC #10541), Mycobacterium fortuitum PCM 672, Candida albicans PCM 2566 (ATCC #10231). […]
# Antibacterial Tests in Solutions. The antibacterial activities of synthesized Ag(I) cyanoximates were determined against bacterial strains by the microplate Alamar Blue assay. […] The fluorescence was measured using Victor^2 apparatus (Wallac, Perkin-Elmer), and the experiment was repeated three times. […] Means and standard error values were determined using the Microsoft Excel.
# [6] = 12 mm pressed pellets, 24 h at 37° C., FIG. 10
Compound,effect on bacterial growth on solid media (inhibition zones) [1],"growth inhibition zone [2, 6]","growth inhibition zone [3, 6]",stability toward short wavelength UV-radiation [4],other results
"Cn1c(C(C#N)=N[O-])nc2ccccc21.[Ag+] [Ag(BIMCO), Silver(I) α-Oximido-(2-[N-methyl]benzoimidazolyl)acetonitrile]",exhibit antimicrobial activity in the solid state,–,–,–,–
Silver(I) Nitrosodicyanomethanide [Ag(CCO)],exhibit antimicrobial activity in the solid state,clear inhibition zones,clear inhibition zones,–,"stability toward short wavelength UV-radiation ([4]; solid powders, 254 nm, 296 K, FIG. 8): resistance"
Silver(I) α-Oximido-(acetamide)acetonitrile [Ag(ACO)],–,–,–,resistance,–
Silver(I) α-Oximido-(2-pivaloyl)acetonitrile [Ag(PiCO)],exhibit antimicrobial activity in the solid state,–,–,–,"minimal inhibitory concentration (MIC), ranking [5]: lowest MIC value"
"N#CC(=N[O-])C(=O)c1ccccc1.[Ag+] [Ag(BCO), Silver(I) α-Oximido-(2-benzoyl)acetonitrile]",exhibit antimicrobial activity in the solid state,–,–,–,–
"CN(C)C(=O)C(C#N)=N[O-].[Ag+] [Ag(DCO), Silver(I) α-Oximido-([N,N-dimethylamine]acetamide)acetonitrile]",exhibit antimicrobial activity in the solid state,–,–,resistance,"growth inhibition zone [2]: clear inhibition zones; growth inhibition zone [3]: clear inhibition zones; minimal inhibitory concentration (MIC), ranking [5]: lowest MIC value"
"N#CC(=N[O-])c1nc2ccccc2o1.[Ag+] [Ag(BOCO), 2-(Oximido)-2-benzoxazoleacetonitrile Silver(I)]",exhibit antimicrobial activity in the solid state,clear inhibition zones,clear inhibition zones,–,–
"[Cl][Ag] [AgC1, silver chloride, reference compound]",–,–,–,completely darken,–
"CCOC(=O)C(C#N)=N[O-].[Ag+] [Ag(ECO), Silver(I) α-Oximido-(ethylacetoxy)acetonitrile]",exhibit antimicrobial activity in the solid state,clear inhibition zones,clear inhibition zones,–,–
